Some targets named below: D(3) dopamine receptor (Homo sapiens, UniProt P35462); Histamine H3 receptor (Homo sapiens, UniProt Q9Y5N1); Mu-type opioid receptor (Homo sapiens, UniProt P35372).
In assay [1] the target is Vascular endothelial growth factor receptor 2 (Homo sapiens, UniProt P35968). Format: functional.
Assay [2] has as its target Prostaglandin G/H synthase 1 (Homo sapiens, UniProt P23219). Type of assay: functional.

This is an account of results in ChEMBL document CHEMBL5291721, “A preclinical secondary pharmacology resource illuminates target-adverse drug reaction associations of marketed drugs” (Nat Commun, 2023).
Further: assay procedure not described here.

Chain of Histamine H3 receptor (Q9Y5N1 whole entry): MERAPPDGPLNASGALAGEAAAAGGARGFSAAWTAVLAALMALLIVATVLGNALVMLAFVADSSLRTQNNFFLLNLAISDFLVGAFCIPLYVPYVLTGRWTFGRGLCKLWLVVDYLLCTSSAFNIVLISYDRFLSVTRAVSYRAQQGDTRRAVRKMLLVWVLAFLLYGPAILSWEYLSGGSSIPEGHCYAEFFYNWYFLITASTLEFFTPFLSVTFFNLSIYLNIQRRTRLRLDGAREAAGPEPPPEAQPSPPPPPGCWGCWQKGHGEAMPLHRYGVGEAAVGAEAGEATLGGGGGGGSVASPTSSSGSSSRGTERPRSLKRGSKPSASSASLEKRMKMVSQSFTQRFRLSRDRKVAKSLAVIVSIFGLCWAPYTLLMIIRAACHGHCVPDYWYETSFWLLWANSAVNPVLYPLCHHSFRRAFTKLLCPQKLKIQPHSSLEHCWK
Chain of Vascular endothelial growth factor receptor 2 (P35968 whole entry): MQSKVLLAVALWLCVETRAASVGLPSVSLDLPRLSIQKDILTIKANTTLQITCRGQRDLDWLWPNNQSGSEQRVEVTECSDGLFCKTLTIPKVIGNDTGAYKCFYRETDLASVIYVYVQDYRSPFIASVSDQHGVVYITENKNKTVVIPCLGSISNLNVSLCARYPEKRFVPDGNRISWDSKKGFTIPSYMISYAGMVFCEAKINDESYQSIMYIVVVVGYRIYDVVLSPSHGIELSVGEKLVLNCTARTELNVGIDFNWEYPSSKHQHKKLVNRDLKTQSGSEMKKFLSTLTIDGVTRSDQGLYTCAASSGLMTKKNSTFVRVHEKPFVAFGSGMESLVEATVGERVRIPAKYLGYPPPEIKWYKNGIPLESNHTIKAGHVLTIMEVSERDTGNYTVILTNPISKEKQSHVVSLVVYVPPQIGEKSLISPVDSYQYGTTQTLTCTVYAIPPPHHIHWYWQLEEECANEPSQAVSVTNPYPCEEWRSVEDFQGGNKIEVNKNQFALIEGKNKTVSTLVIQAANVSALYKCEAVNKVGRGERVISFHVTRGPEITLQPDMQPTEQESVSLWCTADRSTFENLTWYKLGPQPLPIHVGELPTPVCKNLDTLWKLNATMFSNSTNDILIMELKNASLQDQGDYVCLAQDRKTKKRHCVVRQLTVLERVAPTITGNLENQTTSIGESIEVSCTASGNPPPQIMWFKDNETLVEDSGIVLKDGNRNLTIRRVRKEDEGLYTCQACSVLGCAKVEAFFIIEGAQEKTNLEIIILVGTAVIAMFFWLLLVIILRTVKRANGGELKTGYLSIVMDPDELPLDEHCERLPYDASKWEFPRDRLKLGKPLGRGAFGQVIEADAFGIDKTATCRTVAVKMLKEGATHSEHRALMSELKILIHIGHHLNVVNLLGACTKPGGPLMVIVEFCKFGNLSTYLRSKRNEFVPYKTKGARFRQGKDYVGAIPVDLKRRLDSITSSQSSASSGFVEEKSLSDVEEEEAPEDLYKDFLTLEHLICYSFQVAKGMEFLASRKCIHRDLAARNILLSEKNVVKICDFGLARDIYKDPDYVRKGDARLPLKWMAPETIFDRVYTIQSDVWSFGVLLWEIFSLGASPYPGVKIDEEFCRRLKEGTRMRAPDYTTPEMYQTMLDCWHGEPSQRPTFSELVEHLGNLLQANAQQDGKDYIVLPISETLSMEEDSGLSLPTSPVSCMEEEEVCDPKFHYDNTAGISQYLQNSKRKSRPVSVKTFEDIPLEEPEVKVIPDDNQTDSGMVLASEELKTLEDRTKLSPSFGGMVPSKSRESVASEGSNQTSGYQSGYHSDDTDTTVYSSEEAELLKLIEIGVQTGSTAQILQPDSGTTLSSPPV
Chain of Mu-type opioid receptor (P35372 whole entry): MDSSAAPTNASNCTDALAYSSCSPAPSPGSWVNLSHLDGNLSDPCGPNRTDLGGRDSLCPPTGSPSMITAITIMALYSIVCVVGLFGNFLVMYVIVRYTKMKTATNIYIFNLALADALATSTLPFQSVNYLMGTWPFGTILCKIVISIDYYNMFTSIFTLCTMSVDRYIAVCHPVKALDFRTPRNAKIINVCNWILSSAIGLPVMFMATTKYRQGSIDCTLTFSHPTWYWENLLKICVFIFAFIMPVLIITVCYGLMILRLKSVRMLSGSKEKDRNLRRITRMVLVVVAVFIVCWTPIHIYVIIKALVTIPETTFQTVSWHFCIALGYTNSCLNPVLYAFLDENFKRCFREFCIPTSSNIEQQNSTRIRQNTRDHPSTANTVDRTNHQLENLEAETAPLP
Chain of D(3) dopamine receptor (P35462 whole entry): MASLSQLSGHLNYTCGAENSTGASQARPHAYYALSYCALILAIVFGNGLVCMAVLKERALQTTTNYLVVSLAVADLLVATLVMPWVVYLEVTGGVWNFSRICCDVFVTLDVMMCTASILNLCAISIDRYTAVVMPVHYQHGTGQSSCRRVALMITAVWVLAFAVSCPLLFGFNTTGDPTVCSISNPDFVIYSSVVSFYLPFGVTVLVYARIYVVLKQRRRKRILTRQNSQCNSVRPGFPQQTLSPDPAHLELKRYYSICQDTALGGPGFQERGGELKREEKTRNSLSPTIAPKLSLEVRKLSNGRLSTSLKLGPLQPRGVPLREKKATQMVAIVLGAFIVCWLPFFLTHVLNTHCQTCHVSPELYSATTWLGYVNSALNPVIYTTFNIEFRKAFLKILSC
Chain of Prostaglandin G/H synthase 1 (P23219 whole entry): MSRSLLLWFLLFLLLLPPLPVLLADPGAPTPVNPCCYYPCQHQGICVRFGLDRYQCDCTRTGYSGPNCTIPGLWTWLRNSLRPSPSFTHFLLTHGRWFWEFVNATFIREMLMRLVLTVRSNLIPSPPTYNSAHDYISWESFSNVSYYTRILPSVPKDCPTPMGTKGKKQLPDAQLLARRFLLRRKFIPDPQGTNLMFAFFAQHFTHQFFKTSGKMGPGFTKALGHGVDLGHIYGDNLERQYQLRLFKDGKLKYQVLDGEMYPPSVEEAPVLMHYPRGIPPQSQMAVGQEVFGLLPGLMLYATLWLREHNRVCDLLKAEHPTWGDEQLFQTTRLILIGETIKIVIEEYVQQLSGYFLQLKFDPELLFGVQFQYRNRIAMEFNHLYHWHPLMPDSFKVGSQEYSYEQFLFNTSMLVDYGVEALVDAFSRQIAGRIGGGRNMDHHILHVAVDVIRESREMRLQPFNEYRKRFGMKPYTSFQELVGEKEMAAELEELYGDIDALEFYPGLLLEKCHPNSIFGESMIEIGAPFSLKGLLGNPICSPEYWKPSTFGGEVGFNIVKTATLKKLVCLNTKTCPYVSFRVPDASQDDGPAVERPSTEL

Usually AC50 stands for the concentration at which the activity in the assay is half-maximal. Turning to `CCN(CC)CCCC(C)Nc1c2ccc(Cl)cc2nc2ccc(OC)cc12` (stereo not given) [QUINACRINE], the AC50 at D(3) dopamine receptor was 7.05 µM; on Histamine H3 receptor, 0.693 µM; in assay [1], above 30 µM; in assay [2], above 30 µM; at Mu-type opioid receptor it was 5.86 µM.
